Assay results as given in patent US12583855B2, “RET selective inhibitor, preparation method therefor and use thereof” (SHOUYAO HOLDINGS (BEIJING) CO., LTD., priority 2019, dated 2026).
Positions count from the first letter of the chain named. pIC50: −log10 of the molar value.

Assays:
Format in all cases: biochemical
RET^V804M = biological target: T1, RET^V804M (Homo sapiens, UniProt P07949, V804M); experiment: In vitro enzymatic activity assay on RET^V804M (HTRF); details: GST-RET^V804M (658-1114 aa) 0.02 nM, ATP 1.5 μM
T1 construct: GST-RET^V804M (658-1114 aa, final concentration of 0.02 nM)
T1 sequence (P07949 658-1114 V804M): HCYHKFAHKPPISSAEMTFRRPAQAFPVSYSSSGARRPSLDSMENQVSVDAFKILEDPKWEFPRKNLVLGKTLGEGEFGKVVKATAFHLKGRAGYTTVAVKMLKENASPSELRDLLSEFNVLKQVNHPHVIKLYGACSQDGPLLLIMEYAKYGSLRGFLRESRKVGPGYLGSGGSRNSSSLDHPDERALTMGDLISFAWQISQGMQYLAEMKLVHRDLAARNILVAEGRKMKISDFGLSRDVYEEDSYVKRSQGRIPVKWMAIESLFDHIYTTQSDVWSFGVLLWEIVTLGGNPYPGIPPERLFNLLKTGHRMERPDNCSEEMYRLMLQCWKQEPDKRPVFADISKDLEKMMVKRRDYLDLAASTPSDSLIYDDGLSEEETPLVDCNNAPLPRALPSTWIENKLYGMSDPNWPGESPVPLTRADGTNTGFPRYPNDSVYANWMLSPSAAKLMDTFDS

VEGFR2 = VEGFR2 (Homo sapiens, UniProt P35968); experiment: In vitro enzymatic activity assay on VEGFR2 (HTRF); details: GST-VEGFR2 0.1 nM, ATP 2.5 μM
Experimental: 3. n Vitro Enzymatic Activity Assay for Compounds on VEGFR2
The compounds were diluted 5-fold with 100% DMSO starting from 1 mM (7 concentrations in total), and 2 μL of each concentration was added to 48 μL of reaction buffer (50 mM HEPES pH 7.5, 0.1 mM Na3VO4, 5 mM MgCl2, 1 mM MnCl2, 1 mM DTT, 0.001% Tween 20, and 100 μg/ml BSA) for dilution and mixing. 2.5 μL of compounds and 5 μL of GST-VEGFR2 (final concentration of 0.1 nM) were added to a 384-well plate (OptiPlate-384, purchased from PerkinElmer), the mixture was mixed by centrifugation, and 2.5 μL of ATP (final concentration of 2.5 μM) and TK Peptide Substrate mixture (final concentration of 1 μM, purchased from Cisbio) were added to start the reaction, with a total reaction volume of 10 μL. The 384-well plate was placed in an incubator and reacted at 23° C. for 1.5 h before the reaction was stopped by the addition of 5 μL of TK Antibody (purchased from Cisbio) and 5 μL of Streptavidin-XL665 (purchased from Cisbio). After further incubation in the incubator for 1 h. fluorescence values (excitation at 320 nm, detecting emitted light at 665 nm and 620 nm, and a ratio of the two as an enzyme activity signal) were read on Envision (purchased from PerkinElmer). The enzymatic activity signal of VEGFR2 was measured at 7 concentrations for each compound and the data were calculated using GraphPad Prism software to obtain the IC50 value for the compound.

RET^WT = biological target: T2, RET^WT (Homo sapiens, UniProt P07949); experiment: In vitro enzymatic activity assay on RET^WT (HTRF); details: GST-RET^WT (658-1114 aa) 0.5 nM, ATP 25 μM
T2 construct: GST-RET^WT (658-1114 aa, final concentration of 0.5 nM)
T2 sequence (P07949 658-1114): T1 sequence (P07949 658-1114 V804M) with M147V
Experimental: 1. In Vitro Enzymatic Activity Assay for Compounds on RET^WT
The compounds were diluted 5-fold with 100% DMSO starting from 0.2 mM (7 concentrations in total), and 2 μL of each concentration was added to 48 μL of reaction buffer (50 mM HEPES pH7.5, 0.1 mM Na3VO4, 5 mM MgCl2. 1 mM DTT, 0.001% Tween 20, and 100 μg/ml BSA) for dilution and mixing.
The 384-well plate was placed in an incubator and reacted at 23° C. for 2 h before the reaction was stopped by the addition of 5 μL of TK Antibody (purchased from Cisbio) and 5 μL of Streptavidin-XL665 (purchased from Cisbio). […] The enzymatic activity signal of RET^WT was measured at 7 concentrations for each compound and the data were calculated using GraphPad Prism software to obtain the IC50 value for the compound.

Chain of VEGFR2 (P35968 20-1356): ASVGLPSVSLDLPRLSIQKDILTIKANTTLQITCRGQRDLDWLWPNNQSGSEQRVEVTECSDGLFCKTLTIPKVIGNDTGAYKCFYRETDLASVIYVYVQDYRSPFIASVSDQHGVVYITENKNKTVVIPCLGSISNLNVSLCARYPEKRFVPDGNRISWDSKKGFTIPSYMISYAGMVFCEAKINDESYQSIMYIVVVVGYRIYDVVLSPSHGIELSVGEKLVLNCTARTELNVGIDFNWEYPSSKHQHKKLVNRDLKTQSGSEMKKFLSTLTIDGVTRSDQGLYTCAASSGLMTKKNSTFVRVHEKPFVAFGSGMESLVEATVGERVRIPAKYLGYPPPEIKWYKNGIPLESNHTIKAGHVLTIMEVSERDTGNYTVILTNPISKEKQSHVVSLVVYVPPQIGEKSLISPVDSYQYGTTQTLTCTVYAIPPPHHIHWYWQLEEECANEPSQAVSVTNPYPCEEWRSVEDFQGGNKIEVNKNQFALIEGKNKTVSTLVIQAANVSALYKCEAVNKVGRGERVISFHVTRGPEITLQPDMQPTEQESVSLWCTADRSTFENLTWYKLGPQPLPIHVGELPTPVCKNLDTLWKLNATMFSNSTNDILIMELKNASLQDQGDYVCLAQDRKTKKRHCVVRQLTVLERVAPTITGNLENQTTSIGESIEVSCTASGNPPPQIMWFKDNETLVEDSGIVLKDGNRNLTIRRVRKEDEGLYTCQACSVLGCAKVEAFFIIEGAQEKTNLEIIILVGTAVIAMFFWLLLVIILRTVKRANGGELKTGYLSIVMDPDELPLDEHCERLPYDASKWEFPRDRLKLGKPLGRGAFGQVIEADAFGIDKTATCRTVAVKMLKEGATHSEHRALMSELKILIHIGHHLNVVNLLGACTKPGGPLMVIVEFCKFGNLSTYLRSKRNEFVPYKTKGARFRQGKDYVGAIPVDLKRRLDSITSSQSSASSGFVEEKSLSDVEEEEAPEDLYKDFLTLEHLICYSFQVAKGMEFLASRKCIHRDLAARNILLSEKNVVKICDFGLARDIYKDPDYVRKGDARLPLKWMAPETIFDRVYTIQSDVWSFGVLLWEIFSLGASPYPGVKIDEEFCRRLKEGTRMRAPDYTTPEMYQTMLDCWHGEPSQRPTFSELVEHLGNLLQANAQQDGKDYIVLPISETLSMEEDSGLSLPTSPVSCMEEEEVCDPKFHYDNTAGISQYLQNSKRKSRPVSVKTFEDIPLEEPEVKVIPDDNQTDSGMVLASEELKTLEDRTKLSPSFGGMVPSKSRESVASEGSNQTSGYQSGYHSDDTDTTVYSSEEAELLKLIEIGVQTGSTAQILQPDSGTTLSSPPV

Structure (SMILES)	pIC50 (RET^V804M)	pIC50 (VEGFR2)	pIC50 (RET^WT)
C=CC(=O)N1CCN(c2ccc(-c3cc(-c4cnn(C)c4)cn4ncc(C#N)c34)cn2)CC1 [Example 1, 4-(6-(4-acryloylpiperazin-1-yl)pyridin-3-yl)-6-(1-methyl-1Hpyrazol-4-yl)pyrazolo[1,5-a]pyridine-3-carbonitrile]	8.92	8.35	9.45
COc1ccc(CN2C3CC2CN(c2ccc(-c4cc(N5CC(C#N)C5)cn5ncc(C#N)c45)cn2)C3)cn1 [Example 13, 6-(3-cyanoazetidin-1-yl)-4-(6-(6-((6-methoxypyridin-3-yl)methyl)-3,6-diazabicyclo[3.1.1]heptan-3-yl)pyridin-3-yl)pyrazolo[1,5-a]pyridine-3-carbonitrile]	9.48	8.46	9.38
COc1ccc(CN2C3CC2CN(c2ccc(-c4cc(N5CC6(COC6)C5)cn5ncc(C#N)c45)cn2)C3)cn1 [Example 14, 4-(6-(6-((6-methoxypyridin-3-yl)methyl)-3,6-diazabicyclo[3.1.1]heptan-3-yl)pyridin-3-yl)-(2-oxa-azaspiro[3.3]hepta-6-yl)pyrazolo[1,5-a]pyridine-3-carbonitrile]	9.20	8.81	9.12
COc1ccc(CN2C3CC2CN(c2ccc(-c4cc(N5CC(O)(C(F)(F)F)C5)cn5ncc(C#N)c45)cn2)C3)cn1 [Example 28, 6-(3-hydroxy-3-(trifluoromethyl)azetidin-1-yl)-4-(6-(6-((6-methoxypyridin-3-yl)methyl)-3,6-diazabicyclo[3.1.1]heptan-3-yl)pyridin-3-yl)pyrazolo[1,5-a]pyridine-3-carbonitrile]	8.60	–	9.12
COc1ccc(CN2C3CC2CN(c2ccc(-c4cc(N5CC6(CCOCC6)C5)cn5ncc(C#N)c45)cn2)C3)cn1 [Example 30, 4-(6-(6-((6-methoxypyridin-3-yl)methyl)-3,6-diazabicyclo[3.1.1]heptan-3-yl)pyridin-3-yl)-6-(7-oxa-2-azaspiro[3.5]nonan-2-yl) pyrazolo[1,5-a]pyridine-3-carbonitrile]	8.95	–	9.17
COc1ccc(CN2CCN(c3ccc(-c4cc(N5CC(OC)C5)cn5ncc(C#N)c45)cn3)CC2)cn1 [Example 33, 6-(3-methoxyazetidin-1-yl)-4-(6-(4-((6-methoxypyridin-3-yl)methyl)piperazin-1-yl)pyridin-3-yl)pyrazolo[1,5-a]pyridine-3-carbonitrile]	8.55	8.12	9.03
CS(=O)(=O)c1ccc(CN2C3CC2CN(c2ccc(-c4cc(N5CC(C#N)C5)cn5ncc(C#N)c45)cn2)C3)cc1 [Example 35, 6-(3-cyanoazetidin-1-yl)-4-(6-(6-(4-(methylsulfonyl)benzyl)-3,6-diazabicyclo[3.1.1]heptan-3-yl)pyridin-3-yl)pyrazolo[1,5-a]pyridine-3-carbonitrile]	8.83	8.02	9.76
CS(=O)(=O)c1ccc(CN2C3CC2CN(c2ccc(-c4cc(N5CC(F)(F)C5)cn5ncc(C#N)c45)cn2)C3)cc1 [Example 36, 6-(3,3-difluoroazetidin-1-yl)-4-(6-(6-(4-(methylsulfonyl)benzyl)-3,6-diazabicyclo [3.1.1]heptan-3-yl)pyridin-3-yl)pyrazolo[1,5-a]pyridine-3-carbonitrile]	8.59	7.77	9.75
COC/C=C/C(=O)N1C2CC1CN(c1ccc(-c3cc(-c4cnn(C)c4)cn4ncc(C#N)c34)cn1)C2 [Example 61, (E)-4-(6-(6-(4-methoxybut-2-enoyl)-3,6-diazabicyclo[3.1.1]heptan-3-yl)pyridin-3-yl)-6-(1-methyl-1Hpyrazol-4-yl)pyrazolo[1,5-a]pyridine-3-carbonitrile]	8.20	7.74	9.11
CSc1ccc(CN2C3CC2CN(c2ccc(-c4cc(-c5cnn(C(F)F)c5)cn5ncc(C#N)c45)cn2)C3)nc1 [Example 66, 6-(1-(difluoromethyl)-1Hpyrazol-4-yl)-4-(6-(6-((5-(methylthio)pyridin-2-yl)methyl)-3,6-diazabicyclo[3.1.1]heptan-3-yl)pyridin-3-yl)pyrazolo[1,5-a]pyridine-3-carbonitrile]	–	8.53	9.57
CS(=O)(=O)c1ccccc1CN1C2CC1CN(c1ccc(-c3cc(N4CC(F)(F)C4)cn4ncc(C#N)c34)cn1)C2 [Example 67, 6-(3,3-difluoroazetidin-1-yl)-4-(6-(6-(2-(methylsulfonyl)benzyl)-3,6-diazabicyclo [3.1.1]heptan-3-yl)pyridin-3-yl)pyrazolo[1,5-a]pyridine-3-carbonitrile]	8.40	7.09	9.33
CS(=O)(=O)c1ccc(CN2C3CCC2CN(c2ccc(-c4cc(-c5cnn(C(F)F)c5)cn5ncc(C#N)c45)cn2)C3)cc1 [Example 69, 6-(1-difluoromethyl-1Hpyrazol-4-yl)-4-(6-(8-(4-(methylsulfonyl)benzyl)-3,8-diazabicyclo[3.2.1]octan-3-yl)pyridin-3-yl)pyrazolo[1,5-a]pyridine-3-carbonitrile]	8.26	7.20	9.15
CS(=O)(=O)c1ccc(CN2C3CC2CN(c2cnc(-c4cc(-c5cnn(C(F)F)c5)cn5ncc(C#N)c45)cn2)C3)cc1 [Example 70, 4-(5-(6-(4-(methylsulfonyl)benzyl)-3,6-diazabicyclo[3.1.1]heptan-3-yl)pyrazin-2-yl)-6-(1-(difluoromethyl)-1Hpyrazol-4-yl) pyrazolo[1,5-a] pyridine-3-carbonitrile]	8.60	7.25	9.49
CSc1ccc(CN2C3CC2CN(c2ccc(-c4cc(-c5cnn(C(F)F)c5)cn5ncc(C#N)c45)cn2)C3)cc1 [Example 82, 6-(1-difluoromethyl-1Hpyrazol-4-yl)-4-(6-(6-(4-(methylthio)benzyl)-3,6-diazabicyclo[3.1.1]heptan-3-yl)pyridin-3-yl)pyrazolo[1,5-a]pyridine-3-carbonitrile]	–	9.13	9.87
N#Cc1cnn2cc(-c3cnn(C(F)F)c3)cc(-c3ccc(N4CC5CC(C4)N5Cc4ccc([N+](=O)[O-])cc4)nc3)c12 [Example 83, 4-(6-(6-(4-nitrobenzyl)-3,6-diazabicyclo[3.1.1]heptan-3-yl)pyridin-3-yl)-6-(1-(difluoromethyl)-1Hpyrazol-4-yl)pyrazolo[1,5-a]pyridine-3-carbonitrile]	–	8.34	9.92
